Data taken from ChEMBL document CHEMBL4196029, “New MD2 inhibitors derived from curcumin with improved anti-inflammatory activity” (Eur J Med Chem, 2018).
Calls of active or inactive are those of the source. The rule behind the calls is not given here.

Tests used:
[1] = biological target: T1, Inhibitor of nuclear factor kappa-B kinase subunit beta (Homo sapiens) (UniProt O14920); experiment: Inhibition of recombinant human N-terminal His-tagged IKKbeta (1 to 662 residues) expressed in baculovirus expression system at 10 uM after 1 hr by caliper mobility shift assay relative to control
T1 sequence (whole entry): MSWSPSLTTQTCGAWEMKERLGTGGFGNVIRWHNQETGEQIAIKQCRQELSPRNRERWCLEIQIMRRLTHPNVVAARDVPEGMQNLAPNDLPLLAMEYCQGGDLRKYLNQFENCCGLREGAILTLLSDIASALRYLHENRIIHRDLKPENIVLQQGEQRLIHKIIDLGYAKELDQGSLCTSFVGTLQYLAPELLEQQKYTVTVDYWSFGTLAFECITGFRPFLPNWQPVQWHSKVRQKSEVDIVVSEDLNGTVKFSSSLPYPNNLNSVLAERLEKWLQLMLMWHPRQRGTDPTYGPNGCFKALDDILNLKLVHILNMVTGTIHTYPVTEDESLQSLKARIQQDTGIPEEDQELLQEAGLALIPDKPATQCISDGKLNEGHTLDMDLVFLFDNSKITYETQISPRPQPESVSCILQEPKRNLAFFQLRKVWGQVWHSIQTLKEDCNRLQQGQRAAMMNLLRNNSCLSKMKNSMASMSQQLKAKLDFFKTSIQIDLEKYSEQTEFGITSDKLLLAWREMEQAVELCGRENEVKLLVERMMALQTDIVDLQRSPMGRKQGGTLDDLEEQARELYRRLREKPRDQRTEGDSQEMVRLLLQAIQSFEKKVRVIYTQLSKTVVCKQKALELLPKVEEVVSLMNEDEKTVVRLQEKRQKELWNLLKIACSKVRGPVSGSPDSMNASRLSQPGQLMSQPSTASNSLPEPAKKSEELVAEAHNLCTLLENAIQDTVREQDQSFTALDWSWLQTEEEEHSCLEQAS

[2] = tested on: Rattus norvegicus; experiment: (§1) Anti-inflammatory activity in Sprague-Dawley rat model of LPS-induced acute lung injury assessed as reduction in IL-6 mRNA level in lungs at 20 mg/kg, po administered daily for 1 week followed by LPS addition at 30 mins post last dose measured after 6 hrs by qRT-PCR method; assay type: functional, organism-based
[3] = tested on: Rattus norvegicus; experiment: as §1, with “macrophage mobilization to” for “IL-6 mRNA level in”, “lungs by measuring tissue content of CD68” for “lungs”, “DAB staining based light microscopic” for “qRT-PCR”; assay type: functional, organism-based
[4] = biological target: Mitogen-activated protein kinase 1 (Homo sapiens) (UniProt P28482); experiment: Inhibition of recombinant human full length N-terminal GST-tagged ERK2 (1 to 360 end residues) expressed in Escherichia coli at 1 uM after 1 hr by caliper mobility shift assay relative to control
Chain of Mitogen-activated protein kinase 1 (Homo sapiens) (P28482 whole entry): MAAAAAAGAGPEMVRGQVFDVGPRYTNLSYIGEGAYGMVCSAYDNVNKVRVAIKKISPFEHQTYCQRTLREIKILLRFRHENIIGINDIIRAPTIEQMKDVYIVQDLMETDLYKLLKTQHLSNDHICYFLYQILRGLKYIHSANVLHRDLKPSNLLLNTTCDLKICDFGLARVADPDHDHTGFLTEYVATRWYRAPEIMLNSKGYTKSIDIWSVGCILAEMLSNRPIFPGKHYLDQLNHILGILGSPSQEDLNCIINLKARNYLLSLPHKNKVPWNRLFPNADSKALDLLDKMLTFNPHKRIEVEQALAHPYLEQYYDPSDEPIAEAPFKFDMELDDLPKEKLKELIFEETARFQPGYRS

[5] = tested on: RAW264.7; experiment: Inhibition of MD2 in […] cells harboring NF-kB-luc assessed as inhibition of LPS-induced TLR4 activation-mediated NF-kB transcriptional activity at 2.5 uM preincubated with cells followed by LPS addition measured after 6 hrs by luciferase reporter gene assay; assay type: cell-based
[6] = tested on: Mus musculus; experiment: Anti-inflammatory activity in C57BL/6 mouse model of LPS-induced sepsis assessed as survival at 10 mg/kg, iv administered 15 mins prior to LPS treatment measured for 7 days (reference value: 10 to 30%); assay type: functional; conditions: C57BL/6, iv
[7] = tested on: Peritoneal macrophage; experiment: Anti-inflammatory activity in C57BL/6 mouse primary peritoneal macrophages assessed as inhibition of LPS-induced IL-6 secretion at 1 uM preincubated for 30 mins followed by LPS addition measured after 24 hrs by ELISA relative to control; assay type: functional; conditions: C57BL/6, Peritoneal macrophage
[8] = tested on: RAW264.7; experiment: Binding affinity to MD2 in […] cells assessed as inhibition of LPS-induced TLR4-MD2 complex dimerization at 10 uM by co-immunoprecipitation assay; assay type: cell-based
[9] = tested on: Rattus norvegicus; experiment: (§2) Anti-inflammatory activity in Sprague-Dawley rat model of LPS-induced acute lung injury assessed as reduction in pulmonary edema at 20 mg/kg, po administered daily for 1 week followed by LPS addition at 30 mins post last dose measured after 6 hrs; assay type: functional, organism-based
[10] = biological target: Interleukin-1 receptor-associated kinase 1 (Homo sapiens) (UniProt P51617); experiment: Inhibition of recombinant human N-terminal GST-tagged IRAK1 (194 to 712 residues) expressed in baculovirus expression system at 10 uM after 1 hr by caliper mobility shift assay relative to control
Chain of Interleukin-1 receptor-associated kinase 1 (Homo sapiens) (P51617 whole entry, looked up, the tested form may be a part): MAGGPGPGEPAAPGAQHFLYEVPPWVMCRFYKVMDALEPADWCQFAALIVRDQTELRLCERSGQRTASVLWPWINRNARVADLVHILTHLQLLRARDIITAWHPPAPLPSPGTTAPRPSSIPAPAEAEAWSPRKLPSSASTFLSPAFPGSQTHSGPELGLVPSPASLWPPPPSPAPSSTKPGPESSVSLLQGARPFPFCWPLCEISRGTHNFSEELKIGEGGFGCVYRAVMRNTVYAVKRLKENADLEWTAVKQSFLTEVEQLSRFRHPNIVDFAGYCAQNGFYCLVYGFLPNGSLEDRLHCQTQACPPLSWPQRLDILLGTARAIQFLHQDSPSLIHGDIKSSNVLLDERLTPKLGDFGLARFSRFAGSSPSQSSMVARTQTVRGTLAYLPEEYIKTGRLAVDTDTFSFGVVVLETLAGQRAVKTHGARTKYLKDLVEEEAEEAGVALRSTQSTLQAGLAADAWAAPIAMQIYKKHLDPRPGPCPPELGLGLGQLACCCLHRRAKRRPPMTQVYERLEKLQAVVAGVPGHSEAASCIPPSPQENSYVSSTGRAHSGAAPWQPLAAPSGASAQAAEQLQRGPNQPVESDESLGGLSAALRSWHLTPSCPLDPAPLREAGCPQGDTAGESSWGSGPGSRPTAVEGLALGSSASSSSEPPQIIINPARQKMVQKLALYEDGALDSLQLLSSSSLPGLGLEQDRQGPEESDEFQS

[11] = tested on: Peritoneal macrophage; experiment: Anti-inflammatory activity in C57BL/6 mouse primary peritoneal macrophages assessed as inhibition of LPS-induced IL-6 secretion at 1 to 10 uM preincubated for 30 mins followed by LPS addition measured after 24 hrs by ELISA; assay type: functional, cell-based
[12] = biological target: T1, Inhibitor of nuclear factor kappa-B kinase subunit beta (Homo sapiens); experiment: Inhibition of recombinant human N-terminal His-tagged IKKbeta (1 to 662 residues) expressed in baculovirus expression system at 1 uM after 1 hr by caliper mobility shift assay relative to control
[13] = tested on: Peritoneal macrophage; experiment: Inhibition of LPS-induced IL-6 mRNA expression in C57BL/6 mouse primary peritoneal macrophages at 10 uM preincubated for 30 mins followed by LPS addition measured after 24 hrs by qRT-PCR analysis; assay type: functional, cell-based
[14] = tested on: Rattus norvegicus; experiment: as §2, with “leukocytic extravasation in lungs by measuring number of cells in BALF” for “pulmonary edema”, “hrs by Wright-Giemsa staining based light microscopic assay” for “hrs”; assay type: functional, organism-based
[15] = biological target: T1, Inhibitor of nuclear factor kappa-B kinase subunit beta (Homo sapiens); experiment: Inhibition of recombinant human N-terminal His-tagged IKKbeta (1 to 662 residues) expressed in baculovirus expression system at 0.1 uM after 1 hr by caliper mobility shift assay relative to control
[16] = tested on: Peritoneal macrophage; experiment: Anti-inflammatory activity in C57BL/6 mouse primary peritoneal macrophages assessed as inhibition of LPS-induced TNFalpha secretion at 10 uM preincubated for 30 mins followed by LPS addition measured after 24 hrs by ELISA relative to control; assay type: functional; conditions: C57BL/6, Peritoneal macrophage
[17] = tested on: Peritoneal macrophage; experiment: Anti-inflammatory activity in C57BL/6 mouse primary peritoneal macrophages assessed as inhibition of LPS-induced TNFalpha secretion at 5 uM preincubated for 30 mins followed by LPS addition measured after 24 hrs by ELISA relative to control; assay type: functional; conditions: C57BL/6, Peritoneal macrophage
[18] = tested on: Rattus norvegicus; experiment: Anti-inflammatory activity in Sprague-Dawley rat model of LPS-induced acute lung injury assessed as reduction in TNFalpha mRNA level in lungs at 20 mg/kg, po administered daily for 1 week followed by LPS addition at 30 mins post last dose measured after 6 hrs by qRT-PCR method; assay type: functional, organism-based
[19] = tested on: Peritoneal macrophage; experiment: Inhibition of LPS-induced TNFalpha mRNA expression in C57BL/6 mouse primary peritoneal macrophages at 10 uM preincubated for 30 mins followed by LPS addition measured after 24 hrs by qRT-PCR analysis; assay type: functional, cell-based
[20] = tested on: Rattus norvegicus; experiment: Anti-inflammatory activity in Sprague-Dawley rat model of LPS-induced acute lung injury assessed as reduction in MCP1 mRNA level in lungs at 20 mg/kg, po administered daily for 1 week followed by LPS addition at 30 mins post last dose measured after 6 hrs by qRT-PCR method; assay type: functional, organism-based
[21] = biological target: Interleukin-1 receptor-associated kinase 1 (Homo sapiens) (UniProt P51617); experiment: Inhibition of recombinant human N-terminal GST-tagged IRAK1 (194 to 712 residues) expressed in baculovirus expression system at 0.1 uM after 1 hr by caliper mobility shift assay relative to control

SMILES | inhibition [1] [%] | Activity [2] | Activity [3] | inhibition [4] [%] | inhibition [5] | survival at 10 mg/kg [6] [%] | inhibition at 1 µM [7] [%] | inhibition [8] | Activity [9] | inhibition [10] [%] | inhibition [11] | inhibition [12] [%] | inhibition [13] | Activity [14] | inhibition [15] [%] | inhibition at 10 µM [16] [%] | inhibition at 5 µM [17] [%] | Activity [18] | inhibition [19] | Activity [20] | also measured
COc1cc(/C=C2\COC/C(=C\c3cc(OC)c(OC)c(OC)c3)C2=O)cc(OC)c1OC | 7.9 | Active | Active | 10.4 | Active | 70 | > 90 | Active | Active | 3.6 | Active | 13.3 | Active | Active | 15.7 | > 90 | > 50 | Active | Active | Active | inhibition [21]: 15.9%
COc1cc(/C=C2\CN(C)C/C(=C\c3cc(OC)c(OC)c(OC)c3)C2=O)cc(OC)c1OC | 12.8 | Active | Active | 13.3 | Active | 90 | > 90 | Active | Active | 0.5 | Active | 6.3 | Active | Active | 21.1 | > 90 | > 50 | Active | Active | Active | inhibition [21]: 7.7%
